The term Ki denotes a dissociation constant, usually derived from enzyme kinetics or from competition with a known ligand. Higher therefore signals lower affinity.

The record followed here is patent US20110263862A1, “PIPERIDINE DERIVATIVE, PIPERAZINE DERIVATIVE AND AGENT FOR TREATMENT OF DISEASE INVOLVING CENTRAL NERVOUS SYSTEM DISORDERS” (M'S Science Corporation, priority 2008, published 2011).

The target of one assay is T1, sigma receptor (Cavia porcellus, UniProt Q60492).
T1 construct: A membrane preparation as a sigma receptor obtained from the whole brain of guinea pigs; from tissue; host or cells: guinea pig whole brain membrane preparation
Kind of assay: Evaluation of affinity to sigma receptors ([3H](+)-pentazocine receptor binding experiment). More on the design: species or system guinea pig. The note with it: membrane preparation from whole brain of guinea pigs, 25° C., 60 minutes, Dixon plot. The procedure:
A membrane preparation as a sigma receptor obtained from the whole brain of guinea pigs was used as an assay system; [^3H] (+)-pentazocine was used as a radioactive ligand; (+)-pentazocine was used as a positive substance; and 50 mM Tris hydrochloric acid buffer (pH 7.4) was used as a buffer.
The measurement of the following radioactivity was performed according to a common method after the binding reaction had been carried out at 25° C. for 60 minutes.
The inhibition rate was determined by the equation of “100−binding rate”. The binding rate is represented by the following equation:
The IC50 of the test substance was calculated from a regression equation to the dose-response curve. That is, the ratio y=(B−N)/(B0−N) wherein a value of (B−N) is a specific binding radioactivity in the presence of a test substance, and a value of (B0−N) is a specific binding radioactivity in the absence of a test substance was first subjected to logit conversion and applied to a logit-log model plotted against the common logarithm of the test substance concentration to create a dose-response curve. […] The regression equation to the dose-response curve used is as follows:
wherein Y=logity=ln(y/(1−y), X=log x, and a and b are each a constant, provided that x is a solute concentration of a test substance.
Then, for each concentration of the positive substance, the reaction rate was measured while changing the concentration of the test substance in a range including the IC50 to create the Dixon plot, and the Ki value was calculated from the test substance concentration giving an intersection of these straight lines.

Assay [1] has as its system rat cerebral cortex neural cells. The experiment in a line: Evaluation of neurite outgrowth-promoting activity in central neural cells. In kind it is cell-based. Conditions: 48 hours after addition, longest neurite length 60 μm or more, mean±standard error, control 18.0 ± 1.6. The procedure:
The neurite outgrowth-promoting effect of the rat cerebral cortex neural cells on test substances was evaluated using the following method. The cerebral cortex neural cells were isolated from Wistar rats on the 18th day of pregnancy according to the method of Springer Neuroscience Lab Manual. That is, under ether anesthesia, a fetal rat was removed from the uterus of a pregnant rat on day 18, and transferred into a petri dish containing HBSS (manufactured by Gibco, Inc.) on ice. The brain was subdivided into three pieces under a stereoscopic microscope to cut out the cerebral cortex. The cerebral cortex that had been cut out was dispersed with a neural cell dispersion solution (manufactured by Sumitomo Bakelite Co., Ltd.) to prepare rat cerebral cortex cells.
The resulting cerebral cortex cells were subjected to cell culture. Neurobasal medium (manufactured by Gibco, Inc.) supplemented with B27 Supplement (manufactured by Gibco, Inc.; Fin. 2% v/v), L-glutamine (manufactured by IBCO company; Fin. 0.5 mM) and GlutaMax I (manufactured by Gibco, Inc.; Fin. 0.5 mM) was used as the culture medium. The culture conditions were as follows: 5% CO2, 95% air, 100% humidity, and 37° C. The cells were inoculated to polylysine-coated 8-well slides (manufactured by IWAKI company) so as to have about 2×10^4 cells/well.
Compounds (1) to (6) were added as respective test substances (final concentrations: […] and 1.0 μM) to the culture solution at about 3 hours after the cell inoculation, and the culture solution with no additives was used as a control.
At 48 hours after the addition of the compounds, the cells were fixed at room temperature for about 30 minutes using 4% paraformaldehyde (manufactured by Wako Pure Chemical Industries), and incubated with an anti-α-Tublin antibody (Anti-α-Tubulin Alexa Fluor 488 conjugate) recognizing a microtubule protein, at room temperature for one hour. After washing, the nucleus of the whole cell was stained with a nucleic acid-staining agent DAPI. The cells were observed under a fluorescence microscope at a magnification of 20 times. The stained cell image and the nuclear staining image in the same field of vision were imported into a computer as the image. Using an image analysis software (MethaMorph (registered trademark), Molecular Devises), the image imported into the computer, was used to measure the “longest neurite length” that was the length of the longest neurite of individual cell in each field of vision. A cell having a length of the “longest neurite length” of 60 μm or more is defined as a “neurite forming cell” and the neurite forming activity was evaluated by the ratio of the “neurite forming cell” occupied in the number of the cells in the same field of vision. In other words, such evaluation was performed by determining the rate of the neurite forming cells using the following equation:
Rate of neurite forming cells=[Number of neurite forming cells/Number of total cells in the same field of vision]×100
Each numerical value represents mean±standard error.

T1 sequence (Q60492 whole entry): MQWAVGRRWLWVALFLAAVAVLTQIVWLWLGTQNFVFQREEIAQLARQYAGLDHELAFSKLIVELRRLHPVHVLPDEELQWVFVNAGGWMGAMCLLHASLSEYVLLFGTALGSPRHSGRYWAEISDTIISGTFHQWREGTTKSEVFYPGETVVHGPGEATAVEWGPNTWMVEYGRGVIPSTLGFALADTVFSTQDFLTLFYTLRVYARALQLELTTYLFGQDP

On to `c1ccc(CN2CCN(C3CCCCC3)CC2)cc1` [Compound (1), 1-benzyl-4-cyclohexylpiperazine], for which the Ki on sigma receptor is 6.5 nM. Moreover, the “Neurite outgrowth-promoting activity (rate of neurite forming cells)” value (from here on “Neurite outgrowth-promoting activity”) in assay [1] (0.3 μM) is on record as 55.2 ± 1.5%; in assay [1] (1.0 μM), 54.6 ± 1.5%.
For `c1ccc(CCN2CCN(C3CCCCC3)CC2)cc1` [Compound (2), 1-(2-phenylethyl)-4-cyclohexylpiperazine] the same measures were 6 nM, 55.7 ± 2.4% and 55.1 ± 2.3%.
On the same counts, the results for `c1ccc(CCCN2CCN(C3CCCCC3)CC2)cc1` [Compound (3), 1-(3-phenylpropyl)-4-cyclohexylpiperazine] are 6.1 nM, 49.6 ± 2.7% and 58.4 ± 2.8%.
As for `c1ccc(CC2CCN(C3CCCCC3)CC2)cc1` [Compound (4), 1-cyclohexyl-4-benzylpiperidine], the Ki at sigma receptor stood at 7 nM. In addition, the “Neurite outgrowth-promoting activity” value in assay [1] (0.3 μM) is 50.7 ± 2.7%; in assay [1] (1.0 μM) it was 51.1 ± 2.9%.
The compound `c1ccc(CCC2CCN(C3CCCCC3)CC2)cc1` [Compound (5), 1-cyclohexyl-4-(2-phenylethyl)piperidine] showed a Ki on sigma receptor of 3.9 nM. In addition, the “Neurite outgrowth-promoting activity” value in assay [1] (0.3 μM) was determined as 51.2 ± 2.0%; in assay [1] (1.0 μM), 48.9 ± 1.5%.
At sigma receptor, `c1ccc(CCCC2CCN(C3CCCCC3)CC2)cc1` [Compound (6), 1-cyclohexyl-4-(3-phenylpropyl)piperidine] showed a Ki of 2.1 nM. In addition, the “Neurite outgrowth-promoting activity” value in assay [1] (0.3 μM) is reported as 54.2 ± 1.7%; in assay [1] (1.0 μM), 46.0 ± 2.4%.
As to `COc1ccc(CCN2CCN(CCCc3ccccc3)CC2)cc1OC` [Reference compound, reference compound], the “Neurite outgrowth-promoting activity” value in assay [1] (0.3 μM) is listed as 44.6 ± 2.2%; in assay [1] (1.0 μM), 58.4 ± 1.8%.
